In the supplement of paper PMC10307832:

Assays:
Assay in all cases: relative viability (nuclei count vs DMSO), 5 days (fraction); higher = more cells survive
[1] = compound: C[C@]12O[C@H](C[C@]1(O)CO)n1c3ccccc3c3c4c(c5c6ccccc6n2c5c31)CNC4=O [Lestaurtinib] + CC1(C)CCC(c2ccc(Cl)cc2)=C(CN2CCN(c3ccc(C(=O)NS(=O)(=O)c4ccc(N[C@H](CCN5CCOCC5)CSc5ccccc5)c(S(=O)(=O)C(F)(F)F)c4)cc3)CC2)C1 [Navitoclax] (partner 0.5 µM)
Procedure, shortened: (§1)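 Relative viability equals treated-well nuclei counts divided by vehicle-well nuclei counts. Counts came from 4× images of lung cancer cell lines grown in 1536-well plates for 5 days after pin-tool dosing on the day after seeding. Dosing used one drug alone or a fixed anchor-drug dose plus five library-drug doses (not always all listed) in √10 steps, and values are medians of duplicate plates.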

TPCA-1 + Palbociclib = compound: C1=CC(=CC=C1C2=CC(=C(S2)NC(=O)N)C(=O)N)F [TPCA-1] + CC(=O)c1c(C)c2cnc(Nc3ccc(N4CCNCC4)cn3)nc2n(C2CCCC2)c1=O [Palbociclib] (partner 0.5 µM)
Procedure, shortened: as §1

[2] = compound: C1/C(=C\C2=CC=CS2)/C(=O)/C(=C/C3=CC=CS3)/C1 + O=C(c1cc(Cc2n[nH]c(=O)c3ccccc23)ccc1F)N1CCN(C(=O)C2CC2)CC1 [Olaparib] (partner 8 µM)
Procedure, shortened: as §1

[3] = compound: C1/C(=C\C2=CC=CS2)/C(=O)/C(=C/C3=CC=CS3)/C1 + Cc1cc(Nc2cc(N3CCN(C)CC3)nc(Sc3ccc(NC(=O)C4CC4)cc3)n2)n[nH]1 [Tozasertib] (partner 0.1 µM)
Procedure, shortened: as §1

In the case of UMC-11, the relative viability ([1]; first compound 0.005 µM) is reported as 0.294, the relative viability ([1]; first compound 0.01581 µM) is reported as 0.275 and the relative viability ([1]; first compound 0.05 µM) is reported as 0.251. For the same cell line, the relative viability ([1]; first compound 0.1581 µM) was 0.144, the relative viability ([1]; first compound 0.5 µM) was 0.143 and the relative viability (TPCA-1 + Palbociclib; first compound 0.04 µM) was 0.354. It also gave a relative viability (TPCA-1 + Palbociclib; first compound 0.1265 µM) of 0.316, a relative viability (TPCA-1 + Palbociclib; first compound 0.4 µM) of 0.299 and a relative viability (TPCA-1 + Palbociclib; first compound 1.265 µM) of 0.408. The relative viability (TPCA-1 + Palbociclib; first compound 4 µM) was 0.289, the relative viability ([2]; first compound 0.2 µM) was 0.462 and the relative viability ([2]; first compound 0.6325 µM) was 0.347. It also gave a relative viability ([2]; first compound 2 µM) of 0.405, a relative viability ([2]; first compound 6.325 µM) of 0.475 and a relative viability ([2]; first compound 20 µM) of 0.391. It also gave a relative viability ([3]; first compound 0.2 µM) of 0.204, a relative viability ([3]; first compound 0.6325 µM) of 0.192 and a relative viability ([3]; first compound 2 µM) of 0.212. The relative viability ([3]; first compound 6.325 µM) was 0.202 and the relative viability ([3]; first compound 20 µM) was 0.205.
